Measured values as given in patent publication US20040162247A1, “Therapeutic agent or osteoporosis comprising an active ingredient of quercetin derivatives” (priority 2000, published 2004).

Experiments:
ovariectomized rats [1] = assay: Biochemical parameters in plasma of ovariectomized rats; format: in vivo, Female SD (Sprague-Dawley) rats; details: rat, in vivo
Protocol: (§1) When test agents were administered, for a certain period of time before and after administration, 1.5 ml of blood was sampled from tail vein using a catheter (B.D Co.: 24 G) and subjected to complete blood count (Coulter Co.: JT) and biochemical analyses of plasma (Crone Co.: Airon® 200). During autopsy, blood was sampled from caudal venae cavae and subjected to the analyses above. And then, each sample was frozen to store for measurement of trabecular bone area of femur and examination of internal organs.
Since blood reflects the condition of body, safety of quercetin in the body was evaluated by measuring biochemical parameters: that is, blood samples were obtained from the rat prior to operation, one week after operation, and 10 weeks after operation, and measured were levels of alkaline phosphatase (ALP), calcium, inorganic phosphate, blood urea nitrogen (BUN), creatinin, total cholesterol, HDL-cholesterol and LDL-cholesterol (see: Table 8).

[2] = tested on: human osteoblast-like cell line Saos-2; assay: Cell proliferation of Saos-2 cells, MTT method; format: cell-based; details: for MTT assay (% of control group): Saos-2, 3 days
Protocol: Saos-2 cell line which has similar properties to osteoblasts was obtained from Korean Cell Line Bank affiliated to the Cancer Research Institute of School of Medicine, Seoul National University.
Saos-2 cells were seeded in a RPMI 1640 medium (Gibco BRL, U.S.A.) supplemented with 10% (v/v) FBS, 100 unit/ml penicillin, 100 gg/ml streptomycin and grown to form a monolayer in an incubator at 37° C. under an environment of 5% (v/v) CO2 and saturated humidity. The culture was fed with fresh medium 2 to 3 times a week and subcultured once a week using 0.25% (w/v) trypsin.
Saos-2 cells were distributed into a 96-well plate (20,000 cells/well) and quercetin in 1% DMSO was added to a final concentration of 10-2 to 10^−9 mg/ml, 6 wells per each concentration. As a control group, cells without quercetin were used, and as a comparative group, the cells treated with various concentrations of genistein, being studied as a therapeutic agent for osteoporosis, were used. Cells were grown in an incubator at 37° C. for 3 days and incubated 4 more hours under the same condition after adding MTT (3-[4,5-dimethylthiazol-2-yl]-2,5-diphenyltetrazolium bromide, Triazolyl Blue) to a concentration of 0.05 mg/ml. Then, purple colored for-mazan formed in proportion to the number of viable cells was dissolved in DMSO and measured OD at 550 nm employing ELISA reader.
Cell proliferation rate (%) was evaluated by calculating the ratio of the OD of quercetin added well to the OD of control well, wherein, average value of ODs from 6 wells treated with the same concentration of quercetin was employed (see: Table 1).
cell proliferation rate (%)={(average value of OD at 550 nm of quercetin-treated wells—average value of OD at 550 nm of empty wells)/average value of OD at 550 nm of control wells}×100

ovariectomized rats [3] = assay: Trabecular bone area of tibia in ovariectomized rats;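 for Change Rate (%) of TBA of tibia, of control group: control group rats were ovariectomized and are not the sham group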; format: in vivo, Female SD (Sprague-Dawley) rats; details: OVX rats, 9 weeks i.p. (E2 1 μg/kg/day; quercetin, genistein 10 mg/kg/day); for Change Rate (%) of TBA of tibia, of control group: control group = 100
Protocol: (§2) Trabecular bone area (TBA) of lumbar and tibia removed from the rats of each group which was treated with various agents for 9 weeks were measured as follows: that is, using a digitalizer of quantitative image analysis system (Wild Leitz Co.), image of each trabecula was obtained on computer monitor by drawing a contour of the trabecula, and then, using a computer, calculated were average areas of trabeculae within a rectangle of 2×10^6 μm^2 area wherein the width is about ⅔ of the length of growth plate which located underneath of growth plate at proximity of tibia. Also, following the number of trabeculae within the rectangle were obtained, average area was multiplied by the number of trabeculae to obtain trabecular bone area of each sample bone, which was analyzed statistically (see: Table 5).

[4] = tested on: ALP activity in osteoblasts (Saos-2); assay: Alkaline phosphatase (ALP) activity in osteoblasts; format: cell-based, human; details: for ALP activity (% of control group): Saos-2, 3 days
Protocol: Since osteoblasts have cell specific alkaline phosphatase activity, the effect of quercetin of the invention on ALP activity in osteoblasts was evaluated as follows: the number of cells, concentration of tested agent, and culture condition were same as those used in MTT experiment of Example 1-2, and cells were harvested after 3 day-incubation. Genistein was used as a comparative agent. ALP activity was evaluated by analysing changes of OD at 405 nm result from hydrolysis of p-nitrophenylphosphate to p-nitrophenol and phosphate (see: Table 1).

ovariectomized rats [5] = assay: Complete blood count in ovariectomized rats; format: in vivo, Female SD (Sprague-Dawley) rats; details: rat, in vivo
Protocol: as §1
Complete blood count which reflects the condition and abnormality of the body was measured to find out abnormality in test animals caused by administrtion of agents. That is, to find out changes in hematopoiesis of test rats, measured were red blood cell (RBC) count, concentration of hemoglobin (Hb) and hematocrit (Ht) of-blood samples obtained from the rats prior to operation and the rats 10 weeks after administrating agents following operation, and to find out changes in immune system such as inflammation and necrosis of tissues, measured were white blood cell count, lymphocyte count, monocyte count, and granulocyte count (see: Table 7).

ovariectomized rats [6] = assay: Trabecular bone area of lumbars in ovariectomized rats;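 for Change Rate (%) of TBA of lumbars, of control group: control group rats were ovariectomized and are not the sham group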; format: in vivo, Female SD (Sprague-Dawley) rats; details: OVX rats, 9 weeks i.p. (E2 1 μg/kg/day; quercetin, genistein 10 mg/kg/day); for Change Rate (%) of TBA of lumbars, of control group: control group = 100
Protocol: as §2
TBAs of lumbars removed from the animal treated with test agents for 9 weeks were measured employing the same method above (see: Table 6).

Q: Which results are given for `O=c1c(O)c(-c2ccc(O)c(O)c2)oc2cc(O)cc(O)c12` [Quercetin, quercetin]?
A: Concentration of ALP in plasma (ovariectomized rats [1]): 232.83 ± 20.27 U/dL; Concentration of HDL-cholesterol in plasma (ovariectomized rats [1]): 53.38 ± 3.14 mg/dL; Concentration of LDL-cholesterol in plasma (ovariectomized rats [1]): 24.17 ± 3.13 mg/dL; Concentration of blood urea nitrogen (BUN) (ovariectomized rats [1]): 17.05 ± 0.60 mg/dL; Concentration of calcium in plasma (ovariectomized rats [1]): 10.73 ± 0.48 mg/dL; Concentration of creatinin in plasma (ovariectomized rats [1]): 0.57 ± 0.05 mg/dL; Concentration of inorganic phosphate in plasma (ovariectomized rats [1]): 6.79 ± 0.66 mg/dL; Concentration of total cholesterol in plasma (ovariectomized rats [1]): 77.55 ± 5.13 mg/dL; Cell proliferation by MTT method versus control cells (in words) ([2]; Saos-2, 1×10^−9 to 1×10^−3 mg/ml): did not show any difference from the control cells; MTT assay (% of control group) ([2]; 1 × 10^−2 mg/ml): 108.6 ± 2.2 % of control group; MTT assay (% of control group) ([2]; 1 × 10^−2 mg/ml, listed as quercetin): 109 % of control group; MTT assay (% of control group) ([2]; 1 × 10^−3 mg/ml): 98.3 ± 0.8 % of control group; MTT assay (% of control group) ([2]; 1 × 10^−4 mg/ml): 96.5 ± 0.8 % of control group; MTT assay (% of control group) ([2]; 1 × 10^−5 mg/ml): 95.8 ± 1.1 % of control group; MTT assay (% of control group) ([2]; 1 × 10^−6 mg/ml): 96.0 ± 1.0 % of control group; MTT assay (% of control group) ([2]; 1 × 10^−7 mg/ml): 98.6 ± 1.0 % of control group; MTT assay (% of control group) ([2]; 1 × 10^−8 mg/ml): 93.9 ± 0.8 % of control group; MTT assay (% of control group) ([2]; 1 × 10^−9 mg/ml): 93.1 ± 0.8 % of control group; TBA (trabecular bone area) of tibia (ovariectomized rats [3]): 55.52 ± 7.68 ×10^4 μm^2; Change Rate (%) of TBA of tibia, of control group (ovariectomized rats [3]): 160.34 ± 22.17 %; Change Rate (%) of TBA of tibia, of control group (ovariectomized rats [3]; listed as quercetin): 160%; ALP activity (% of control group) ([4]; 1 × 10^−2 mg/ml): 106.1 ± 4.3 % of control group; ALP activity (% of control group) ([4]; 1 × 10^−3 mg/ml): 107.3 ± 1.5 % of control group; ALP activity (% of control group) ([4]; 1 × 10^−4 mg/ml): 113.5 ± 2.3 % of control group; ALP activity (% of control group) ([4]; 1 × 10^−5 mg/ml): 116.5 ± 3.7 % of control group; ALP activity (% of control group) ([4]; 1 × 10^−6 mg/ml): 127.2 ± 3.5 % of control group; ALP activity (% of control group) ([4]; 1 × 10^−6 mg/ml, listed as quercetin): 127 % of control group; ALP activity (% of control group) ([4]; 1 × 10^−7 mg/ml): 101.2 ± 3.1 % of control group; ALP activity (% of control group) ([4]; 1 × 10^−8 mg/ml): 104.4 ± 3.9 % of control group; ALP activity (% of control group) ([4]; 1 × 10^−9 mg/ml): 98.1 ± 0.0 % of control group; ALP activation effect relative to genistein ([4]; maximum at 1×10^−6 mg/ml (quercetin) versus 1×10^−4 mg/ml (genistein)): about 100 fold; Concentration of hemoglobin(Hb) (ovariectomized rats [5]): 16.00 ± 0.30 g/dL; Granulocyte count (ovariectomized rats [5]): 2.80 ± 0.30 ×10^3 cells/μl; Hematocrit(Ht) (ovariectomized rats [5]): 43.62 ± 0.83%; Lymphocyte count (ovariectomized rats [5]): 16.78 ± 3.52 ×10^3 cells/μl; Monocyte count (ovariectomized rats [5]): 0.65 ± 0.07 ×10^3 cells/μl; Red blood cell(RBC) count (ovariectomized rats [5]): 7.29 ± 0.15 ×10^6 cells/μl; White blood cell count (ovariectomized rats [5]): 20.28 ± 3.77 ×10^3 cells/μl; White blood cell count, before versus after operation (in words) (ovariectomized rats [5]): did not show any changes; TBA (trabecular bone area) of lumbars (ovariectomized rats [6]): 87.38 ± 4.53 ×10^4 μm^2; Change Rate (%) of TBA of lumbars, of control group (ovariectomized rats [6]): 129.40 ± 6.71 %; Change Rate (%) of TBA of lumbars, of control group (ovariectomized rats [6]; listed as quercetin): 129%
